From patent US20220378721A1, “PROTEIN KINASE INHIBITORS AND USE THEREOF FOR TREATMENT OF NEURODEGENERATIVE DISEASES” (Xavier University of Louisiana, priority 2019, published 2022) come the findings set out here.

The target of one assay is CK1δ (Homo sapiens, UniProt P48730). Briefly: Casein kinase 1δ inhibition assay, Z'-LYTE FRET based (ThermoFisher SelectScreen). Format: biochemical. The note with it: for % Inhibition CK1δ: 10 μM concentration, high-throughput screening; for IC50: dose response, FRET based assay (Table 2), read-out: CK1δ (IC50 μM); for pIC50 / IC50 values of inhibition of CK1δ: 10-point titration, 3-fold dilution from 25 μM (Table 4); for pIC50: read-out: IC50 values of inhibition of CK1δ. The method, then: Casein kinase 1δ Inhibition Assay: An initial high-throughput assay of the 28 commercially purchased compounds and 22 synthesized compounds were conducted at a 10 μM concentration at the ThermoFisher Select Screen facility. […] FIG. 1 sets forth their chemical structures.
These compounds were then subjected to dose response curve determination studies with the same FRET based assays at ThermoFisher Scientific. The IC50 values, defined as the concentration of the compound required to […] by 50%, of the some of the compounds from the screening were measured (Table 2).
(§1) The synthesized molecules from FIG. 5 were then analyzed for the inhibition of CK1δ and CK1ε, using in-vitro kinase inhibition assay. The in-vitro kinase inhibition assays were conducted at the ThermoPisher Select Screen Biochemical Kinase Profiling Service. It is a Z′-LYTE biochemical FRET based fluorescence assay with a coupled enzyme format that has differential sensitivity to phosphorylated and non-phosphorylated peptides upon proteolytic cleavage. An initial high-throughput in-vitro screening assay at a concentration of 10 μM for all of the compounds in FIG. 5.
(§2) Table 4 sets forth the IC50 values of inhibition of CK1δ and CK1ε by some of the compounds from FIG. 5.

The target in the next assay is CK1ε (Homo sapiens, UniProt P49674). Briefly: In-vitro kinase inhibition assay, Z'-LYTE FRET based (ThermoFisher SelectScreen). Format: biochemical. The note with it: for % Inhibition CK1ε: 10 μM concentration, high-throughput screening; for pIC50: 10-point titration, 3-fold dilution from 25 μM (Table 4). The method, then: as §1, §2
In assay [1] the test system is tau phosphorylation at Ser202 in HeLa cells. The experiment in a line: Inhibition of tau phosphorylation at serine 202 in HeLa cells expressing full-length Tau. Type of assay: cell-based. The following applies: HeLa cells transfected with full length tau, 10 μM compound; for inhibition of tau phosphorylation of Ser202: pTau/total Tau. The method, then: FIG. 3A and FIG. 3B show inhibition of Tau phosphorylation by CK1δ inhibitors in HeLa cells. HeLa cervical cancer cells ectopically expressing full-length Tau protein were treated with 10 μM of the indicated compounds. Samples were prepared in triplicate. […] Actin was used as a loading control only and was not used in any later calculations. […] The Y axis reflects the average change in pTau levels divided by total Tau levels for the triplicate experiments for each compound. For normalization purposes, the vehicle control was set to 1.0 and all other values were adjusted accordingly.
For a CK1δ inhibitor to be considered a potential therapeutic for AD, the compound should be able to inhibit the phosphorylation of tau at the specific residues that are known to be phosphorylated by CK1δ. It has been shown that tau phosphorylation at Ser202/Ser205 and Ser396/Ser404 by CK1δ is not dependent on the priming by other protein kinases. Additionally, these phosphorylation sites are among those sites (Ser199, Ser 202, Ser231, Thr205, Ser396 and Ser404) that regulate the microtubule stabilizing function. Based on these evidences, Ser202 was chosen as the representative tan phosphorylation site of this study to understand the efficacy of our CK1δ inhibitors in inhibiting tau phosphorylation.
Inhibition of Tau Phosphorylation. To confirm biological relevance, the compounds identified by the FRET screens as potential CK1δ inhibitors were tested in an in vitro assay for their ability to inhibit the phosphorylation of tau at serine 202, a known target of CK1δ. LH 846, a known inhibitor of CK1δ was used as the positive control. […] In in-vitro tau phosphorylation assay in HeLa cells that were transfected with full length tau, the CK1δ inhibitors indeed lowered the tau phosphorylation levels at Ser202 by 20%-56%. Compounds 8 and 9 inhibited tau phosphorylation of Ser202 by 56% and 55%, respectively when added to HeLa cells that were transfected with and therefore overexpressed tan protein (FIG. 3).

The next assay has as its target CSNK1D (CK1δ) (Homo sapiens, UniProt P48730). The experiment in a line: 100 kinase panel assay. Format: biochemical. An excerpt:
(§3) Compound 2 (from FIG. 1) was screened against a panel of 100 kinases to understand the specificity.

Another assay addresses PIM1 (Homo sapiens, UniProt P11309). Briefly: 100 kinase panel assay. Format: biochemical.
Excerpt: as §3

In the next assay the target is PIM3 (Homo sapiens, UniProt Q86V86). Briefly: 100 kinase panel assay. Type of assay: biochemical.
Excerpt: as §3

pIC50: −log10 of the molar value. Where two headings read alike, the source gives them in different places. A value given as a limit tells only on which side of the number the result lay.

Chain of CK1δ (P48730 whole entry): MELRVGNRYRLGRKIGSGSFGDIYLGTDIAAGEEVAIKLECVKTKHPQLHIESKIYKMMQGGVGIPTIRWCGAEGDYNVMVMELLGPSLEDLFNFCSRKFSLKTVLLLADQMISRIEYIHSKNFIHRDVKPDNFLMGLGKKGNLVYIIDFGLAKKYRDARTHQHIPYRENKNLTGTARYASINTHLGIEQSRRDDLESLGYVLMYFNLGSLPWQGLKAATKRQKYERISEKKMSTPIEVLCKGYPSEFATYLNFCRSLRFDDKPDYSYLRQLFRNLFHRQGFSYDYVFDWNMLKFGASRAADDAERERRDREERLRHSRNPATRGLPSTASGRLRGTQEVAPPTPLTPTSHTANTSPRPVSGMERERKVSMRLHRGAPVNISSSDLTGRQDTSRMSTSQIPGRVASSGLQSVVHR
Chain of CK1ε (P49674 whole entry): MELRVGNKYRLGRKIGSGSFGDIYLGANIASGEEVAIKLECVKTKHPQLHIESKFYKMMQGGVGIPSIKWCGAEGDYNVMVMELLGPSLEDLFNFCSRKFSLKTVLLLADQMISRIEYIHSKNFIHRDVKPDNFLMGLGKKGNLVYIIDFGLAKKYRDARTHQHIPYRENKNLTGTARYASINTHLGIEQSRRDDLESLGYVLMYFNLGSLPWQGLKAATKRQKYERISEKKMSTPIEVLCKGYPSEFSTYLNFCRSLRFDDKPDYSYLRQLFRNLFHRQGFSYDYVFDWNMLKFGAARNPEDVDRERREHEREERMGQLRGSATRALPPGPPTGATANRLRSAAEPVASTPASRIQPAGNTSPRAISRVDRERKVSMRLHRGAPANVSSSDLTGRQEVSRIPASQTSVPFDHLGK
Chain of CSNK1D (CK1δ) (P48730 whole entry): as the sequence (P48730 whole entry) above
Chain of PIM1 (P11309 whole entry): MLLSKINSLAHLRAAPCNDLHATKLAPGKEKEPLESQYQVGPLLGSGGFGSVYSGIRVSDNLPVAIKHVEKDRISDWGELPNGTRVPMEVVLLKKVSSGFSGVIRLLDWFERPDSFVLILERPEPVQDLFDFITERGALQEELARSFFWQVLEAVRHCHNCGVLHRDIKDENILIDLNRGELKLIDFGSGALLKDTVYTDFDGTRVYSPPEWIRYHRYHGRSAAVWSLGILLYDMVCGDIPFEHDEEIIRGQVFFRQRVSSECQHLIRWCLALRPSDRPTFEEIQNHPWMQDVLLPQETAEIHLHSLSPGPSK

As to `O=C1C(c2ccccc2)=C(c2ccccc2)C(=O)c2c(O)ccc(O)c21` [Compound 21], the “% Inhibition CK1δ” value on CK1δ is 8%. At CK1ε, the “% Inhibition CK1ε” value is 14%.

On to `CC(C)(C)OC1CC(O)CC2C(=O)c3c(O)ccc(O)c3C(=O)C12` (stereo not drawn) [Compound 10], for which the IC50 at CK1δ was 10.1 µM.

Turning to `COc1cccc2c1C(=O)c1c(O)ccc(O)c1C2=O` [Compound 5], the IC50 on CK1δ came to 0.2 µM. In addition, in assay [1], the “inhibition of tau phosphorylation at Ser202 (in words)” value (“inhibition … (in words)” below) was “comparable inhibition potency” and the “inhibition of tau phosphorylation of Ser202” value (“inhibition … of Ser202” for short) is “approximately 43%”.

Consider `O=C1C=C(CBr)C(=O)c2c(O)ccc(O)c21` [Compound 12], for which the “% Inhibition CK1δ” value at CK1δ (10 µM) was 94%. Further, at CK1δ, the pIC50 is 6.14 and the IC50 stood at 0.7 µM. Further, on CK1ε (10 µM), the “% Inhibition CK1ε” value was found to be 101%. Further, the “inhibition … (in words)” value in assay [1] is listed as “comparable inhibition potency”.

On to `Cc1ccc(O)c2c1C(=O)C=CC2=O` [Compound 13], for which the “% Inhibition CK1δ” value on CK1δ (10 µM) was found to be 85%. Besides, at CK1δ, the negative logarithm of the IC50 (pIC50) was 5.62 and the half-maximal inhibitory concentration (IC50) was found to be 31.2 µM. In addition, at CK1ε (10 µM), the “% Inhibition CK1ε” value was found to be 98%. This compound showed a pIC50 against CK1ε of 5.92.

For `O=C1c2ccccc2C(=O)c2c(NCCO)cccc21` [Compound 6], the IC50 on CK1δ turned out to be 21.2 µM.

`O=C1C=C(Br)C(=O)c2c(O)ccc(O)c21` [Compound 24]: at CK1δ, the “% Inhibition CK1δ” value was determined as 1%, the “IC50 values of inhibition of CK1δ” value was “could not be determined” and the pIC50 is less than 4.60. Besides, the “% Inhibition CK1ε” value at CK1ε (10 µM) worked out at 96%. In addition, the pIC50 against CK1ε was 5.68.

Take `O=C1C(CO)=C(CO)C(=O)c2c(O)ccc(O)c21` [Compound 11]: on CK1δ, the IC50 stood at 27.2 µM.

Take `O=C1C(Cl)=C(Cl)C(=O)c2c(O)c(Cl)cc(O)c21` [Compound 19]: at CK1δ, the “% Inhibition CK1δ” value was determined as 42% and the pIC50 was 5.02. Moreover, the “% Inhibition CK1ε” value at CK1ε (10 µM) is given as 88%. The “selectivity for CK1ε over CK1δ” value on CK1ε (from % inhibition at 10 μM) was 2 fold.

Take `O=C1C=C(c2ccccc2)C(=O)c2c(O)ccc(O)c21` [Compound 23]: on CK1δ, the “% Inhibition CK1δ” value is recorded as 17%. Further, the “% Inhibition CK1ε” value on CK1ε was found to be 60%.

Turning to `COc1cc2cc3c(c(O)c2c(O)c1C=CC(C)C)C(=O)CC(C)(OC(C)=O)C3` (stereo not drawn) [Compound 4], on CK1δ, the IC50 amounted to 16.1 µM.

Take `CC(C)(C)OC1CC(=O)CC2C(=O)c3cccc(O)c3C(=O)C12` (stereo not drawn) [Compound 8]: the IC50 on CK1δ was determined as 18.9 µM. Further, in assay [1], the “inhibition … (in words)” value is given as “comparable inhibition potency” and the “inhibition … of Ser202” value was 56%.

On to `CC(C)CCc1cc(O)c2c(c1)C(=O)C=C(C1=CC(=O)c3cc(CCC(C)C)cc(O)c3C1=O)C2=O` [Compound 28], for which, at CK1δ, the “% Inhibition CK1δ” value is given as 9%. In addition, the “% Inhibition CK1ε” value on CK1ε came out at 13%.

On to `CNC(=O)c1ccc2c(c1N)C(=O)c1ccccc1C2=O` [Compound 7], for which the IC50 at CK1δ came to 19.4 µM.

For the compound `CC1=C(C)C(=O)c2c(O)c(Cl)cc(O)c2C1=O` [Compound 22], the “% Inhibition CK1δ” value on CK1δ was determined as 2%. Further, the “% Inhibition CK1ε” value on CK1ε is reported as 39%.

`CCc1cc(O)c2c(c1)C(=O)C=C(C1=CC(=O)c3cc(CC)cc(O)c3C1=O)C2=O` [Compound 26]: on CK1δ, the “% Inhibition CK1δ” value worked out at 43%. Besides, the “% Inhibition CK1ε” value at CK1ε worked out at 64%.

In the case of `CC(C)Cc1cc(O)c2c(c1)C(=O)C=C(C1=CC(=O)c3cc(CC(C)C)cc(O)c3C1=O)C2=O` [Compound 29], the “% Inhibition CK1δ” value on CK1δ was found to be 8%. Moreover, on CK1ε, the “% Inhibition CK1ε” value is reported as 15%.

Regarding `CC(C)C(C)OC1CC(=O)CC2C(=O)c3c(O)ccc(O)c3C(=O)C12` (stereo not drawn) [Compound 9], at CK1δ, the IC50 amounted to 5.8 µM. Besides, in assay [1], the “inhibition … (in words)” value is recorded as “comparable inhibition potency” and the “inhibition … of Ser202” value is recorded as 55%.

In the case of `O=C1C2=C(C(=O)c3c(O)ccc(O)c31)C(O)C(O)C(O)C2` (stereo not drawn) [Compound 2], the “% Inhibition at 10 μM, CSNK1D” value at CSNK1D (CK1δ) turned out to be 70%. The “% Inhibition at 10 μM, PIM1” value on PIM1 is reported as 66%. Also, the “% Inhibition at 10 μM, PIM3” value on PIM3 worked out at 64%. The “inhibition … (in words)” value in assay [1] is “did not measure up to them”.

In the case of `O=Cc1cc(O)c2c(c1O)C(=O)C=CC2=O` [Compound 14], at CK1δ, the IC50 is 3.1 µM.

Consider `CC(O)C1=CC(=O)c2c(O)ccc(O)c2C1=O` (stereo not drawn) [Compound 16], for which the IC50 at CK1δ is 2.4 µM. Moreover, the “inhibition … (in words)” value in assay [1] is “comparable inhibition potency”.

On to `O=C1C=CC(=O)c2c(O)c(Cl)cc(O)c21` [Compound 18], for which, at CK1δ, the “% Inhibition CK1δ” value is 13%, the “IC50 values of inhibition of CK1δ” value is listed as “could not be determined” and the pIC50 is less than 4.60. For the same compound, the “% Inhibition CK1ε” value at CK1ε (10 µM) came out at 90%. On CK1ε, this compound showed a pIC50 of 5.87.

In the case of `CCCCCCc1cc(O)c2c(c1)C(=O)C=C(C1=CC(=O)c3cc(CCCCCC)cc(O)c3C1=O)C2=O` [Compound 30], the “% Inhibition CK1δ” value at CK1δ is recorded as 6%. Besides, the “% Inhibition CK1ε” value on CK1ε came out at 12%.

`O=C1C(Cl)=C(Cl)C(=O)c2c(O)ccc(O)c21` [Compound 20]: on CK1δ, the “% Inhibition CK1δ” value turned out to be 21%, the “IC50 values of inhibition of CK1δ” value is listed as “could not be determined” and the pIC50 is less than 4.60. Moreover, on CK1ε (10 µM), the “% Inhibition CK1ε” value is given as 84%. Further, the pIC50 against CK1ε was 5.12.

On to `Cc1cc(O)c2c(c1O)C(=O)C=CC2=O` [Compound 15], for which, on CK1δ, the “% Inhibition CK1δ” value came out at 31% and the IC50 came to 6.3 µM. Moreover, at CK1ε, the “% Inhibition CK1ε” value is on record as 58%.

Take `CC(C)Cc1cc(O)c2c(c1)C(=O)C=CC2=O` [Compound 25]: on CK1δ, the “% Inhibition CK1δ” value came to 11%. In addition, on CK1ε, the “% Inhibition CK1ε” value came out at 48%.

Consider `CC(=O)Oc1ccc(O)c2c1C(=O)C=CC2=O` [Compound 3], for which the IC50 on CK1δ turned out to be 0.2 µM.

Regarding `CCCCCc1cc(O)c2c(c1)C(=O)C=C(C1=CC(=O)c3cc(CCCCC)cc(O)c3C1=O)C2=O` [Compound 27], the “% Inhibition CK1δ” value on CK1δ is 9%. For the same compound, the “% Inhibition CK1ε” value on CK1ε was 13%.

A word on the IC50: it is the point on the concentration scale where inhibition reaches its midpoint. In general, pIC50 refers to −log10 of the IC50, conventionally taken in molar units. For orientation: % Inhibition means the change of the read-out against control, counted positive when it falls.
